Patent US12077503B2, “Substituted cyclic amides and their use as herbicides” (FMC CORPORATION, priority 2015, dated 2024)

Experiments:
Type in all cases: in vivo
[1] = test system: barnyardgrass (Echinochloa crus-galli); test: Test G Pre-Emergence Protocol; settings: Echinochloa crus-galli, pre-emergence, 312 h, evaluated after 13 days; for pest or weed control at 15.625 g/ha: 15.625 g ai/ha, read-out: Barnyard grass damage rating (100=total damage to plant; 0=no damage to plant); for pest or weed control at 62.5 g/ha: 62.5 g ai/ha, 100=total damage to plant, 0=no damage to plant, read-out: plant damage rating, Barnyardgrass; for pest or weed control at 250 g/ha: 250 g ai/ha, read-out: Barnyardgrass damage rating (100=total damage to plant; 0=no damage to plant)
Method in brief: (§1)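 Visual injury (0–100) at day 13 after a single pre-emergence spray. Rates: 15.625, 62.5, 250 g/ha in acetone–water 50:50 with 0.5% Tween 20. Growth conditions: 24/16° C, 14 h light, 65% humidity.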

corn (Zea mays) [2] = test: Test G Pre-Emergence Protocol; settings: Zea mays, pre-emergence, 312 h, evaluated after 13 days; for plant injury at 15.625 g/ha: 15.625 g ai/ha; for plant injury at 15.625 g/ha / plant injury at 250 g/ha: read-out: Corn damage rating (100=total damage to plant; 0=no damage to plant); for plant injury at 62.5 g/ha: 62.5 g ai/ha, 100=total damage to plant, 0=no damage to plant, read-out: plant damage rating, Corn; for plant injury at 250 g/ha: 250 g ai/ha
Method in brief: as §1

[3] = test system: giant foxtail (Setaria faberi); test: Test G Pre-Emergence Protocol; settings: Setaria faberi, pre-emergence, 312 h, evaluated after 13 days; for pest or weed control at 15.625 g/ha: 15.625 g ai/ha; for pest or weed control at 15.625 g/ha / pest or weed control at 250 g/ha: read-out: Foxtail, Giant damage rating (100=total damage to plant; 0=no damage to plant); for pest or weed control at 62.5 g/ha: 62.5 g ai/ha, 100=total damage to plant, 0=no damage to plant, read-out: plant damage rating, Foxtail, Giant; for pest or weed control at 250 g/ha: 250 g ai/ha
Method in brief: as §1

[4] = test system: ivy-leaved morning glory (Ipomoea hederacea); test: Test G Pre-Emergence Protocol; settings: Ipomoea, pre-emergence, 312 h, evaluated after 13 days; for pest or weed control at 15.625 g/ha: 15.625 g ai/ha, read-out: Morning-glory, Ivy-leaved damage rating (100=total damage to plant; 0=no damage to plant); for pest or weed control at 62.5 g/ha: 62.5 g ai/ha, 100=total damage to plant, 0=no damage to plant, read-out: plant damage rating, Morningglory, Ivy-leaved; for pest or weed control at 250 g/ha: 250 g ai/ha, read-out: Morningglory, Ivy-leaved damage rating (100=total damage to plant; 0=no damage to plant)
Method in brief: as §1

[5] = test system: redroot pigweed (Amaranthus retroflexus); test: Test G Pre-Emergence Protocol; settings: Amaranthus retroflexus, pre-emergence, 312 h, evaluated after 13 days; for pest or weed control at 15.625 g/ha: 15.625 g ai/ha; for pest or weed control at 15.625 g/ha / pest or weed control at 250 g/ha: read-out: Pigweed, Redroot damage rating (100=total damage to plant; 0=no damage to plant); for pest or weed control at 62.5 g/ha: 62.5 g ai/ha, 100=total damage to plant, 0=no damage to plant, read-out: plant damage rating, Pigweed, Redroot; for pest or weed control at 250 g/ha: 250 g ai/ha
Method in brief: as §1

[6] = test system: velvetleaf (Abutilon theophrasti); test: Test G Pre-Emergence Protocol; settings: Abutilon theophrasti, pre-emergence, 312 h, evaluated after 13 days; for pest or weed control at 15.625 g/ha: 15.625 g ai/ha; for pest or weed control at 15.625 g/ha / pest or weed control at 250 g/ha: read-out: Velvetleaf damage rating (100=total damage to plant; 0=no damage to plant); for pest or weed control at 62.5 g/ha: 62.5 g ai/ha, 100=total damage to plant, 0=no damage to plant, read-out: plant damage rating, Velvetleaf; for pest or weed control at 250 g/ha: 250 g ai/ha
Method in brief: as §1

[7] = test system: barnyardgrass (Echinochloa crus-galli); test: Test G Post-Emergence Protocol; settings: Echinochloa crus-galli, post-emergence, 312 h; for pest or weed control at 15.625 g/ha: 15.625 g ai/ha, evaluated after 13 days (100=total damage to plant; 0=no damage to plant), read-out: Barnyardgrass damage rating; for pest or weed control at 62.5 g/ha: 62.5 g ai/ha, read-out: Barnyardgrass damage rating (100=total damage to plant; 0=no damage to plant); for pest or weed control at 62.5 g/ha / pest or weed control at 250 g/ha: evaluated after 13 days; for pest or weed control at 250 g/ha: 250 g ai/ha, read-out: damage to plant, Barnyardgrass (100=total damage to plant; 0=no damage to plant)
Method in brief: (§2)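 Eight days post-sowing, plants received a spray of test compound (acetone/water 50:50, 0.5% Tween 20) at 15.625, 62.5 or 250 g/ha. Glasshouse regime thereafter: 24/16 °C, 14 h light, 65% humidity. Assessment after 13 days on a 0–100 damage scale.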

corn (Zea mays) [8] = test: Test G Post-Emergence Protocol; settings: Zea mays, post-emergence, 312 h; for plant injury at 15.625 g/ha: 15.625 g ai/ha, evaluated after 13 days (100=total damage to plant; 0=no damage to plant), read-out: Corn damage rating; for plant injury at 62.5 g/ha: 62.5 g ai/ha, read-out: Corn damage rating (100=total damage to plant; 0=no damage to plant); for plant injury at 62.5 g/ha / plant injury at 250 g/ha: evaluated after 13 days; for plant injury at 250 g/ha: 250 g ai/ha, read-out: damage to plant, Corn (100=total damage to plant; 0=no damage to plant)
Method in brief: as §2

[9] = test system: giant foxtail (Setaria faberi); test: Test G Post-Emergence Protocol; settings: Setaria faberi, post-emergence, 312 h; for pest or weed control at 15.625 g/ha: 15.625 g ai/ha, evaluated after 13 days (100=total damage to plant; 0=no damage to plant), read-out: Foxtail, Giant damage rating; for pest or weed control at 62.5 g/ha: 62.5 g ai/ha, read-out: Foxtail, Giant damage rating (100=total damage to plant; 0=no damage to plant); for pest or weed control at 62.5 g/ha / pest or weed control at 250 g/ha: evaluated after 13 days; for pest or weed control at 250 g/ha: 250 g ai/ha, read-out: damage to plant, Foxtail, Giant (100=total damage to plant; 0=no damage to plant)
Method in brief: as §2

[10] = test system: ivy-leaved morning glory (Ipomoea hederacea); test: Test G Post-Emergence Protocol; settings: Ipomoea, post-emergence, 312 h; for pest or weed control at 15.625 g/ha: 15.625 g ai/ha, evaluated after 13 days (100=total damage to plant; 0=no damage to plant), read-out: Morningglory, Ivy-leaved damage rating; for pest or weed control at 62.5 g/ha: 62.5 g ai/ha, read-out: Morningglory, Ivy-leaved damage rating (100=total damage to plant; 0=no damage to plant); for pest or weed control at 62.5 g/ha / pest or weed control at 250 g/ha: evaluated after 13 days; for pest or weed control at 250 g/ha: 250 g ai/ha, read-out: damage to plant, Morningglory, Ivy-leaved (100=total damage to plant; 0=no damage to plant)
Method in brief: as §2

[11] = test system: redroot pigweed (Amaranthus retroflexus); test: Test G Post-Emergence Protocol; settings: Amaranthus retroflexus, post-emergence, 312 h; for pest or weed control at 15.625 g/ha: 15.625 g ai/ha, evaluated after 13 days (100=total damage to plant; 0=no damage to plant), read-out: Pigweed, Redroot damage rating; for pest or weed control at 62.5 g/ha: 62.5 g ai/ha, read-out: Pigweed, Redroot damage rating (100=total damage to plant; 0=no damage to plant); for pest or weed control at 62.5 g/ha / pest or weed control at 250 g/ha: evaluated after 13 days; for pest or weed control at 250 g/ha: 250 g ai/ha, read-out: damage to plant, Pigweed, Redroot (100=total damage to plant; 0=no damage to plant)
Method in brief: as §2

[12] = test system: velvetleaf (Abutilon theophrasti); test: Test G Post-Emergence Protocol; settings: Abutilon theophrasti, post-emergence, 312 h; for pest or weed control at 15.625 g/ha: 15.625 g ai/ha, evaluated after 13 days (100=total damage to plant; 0=no damage to plant), read-out: Velvetleaf damage rating; for pest or weed control at 62.5 g/ha: 62.5 g ai/ha, read-out: Velvetleaf damage rating (100=total damage to plant; 0=no damage to plant); for pest or weed control at 62.5 g/ha / pest or weed control at 250 g/ha: evaluated after 13 days; for pest or weed control at 250 g/ha: 250 g ai/ha, read-out: damage to plant, Velvetleaf (100=total damage to plant; 0=no damage to plant)
Method in brief: as §2

SMILES	pest or weed control at 15.625 g/ha [1] [%]	pest or weed control at 62.5 g/ha [1] [%]	pest or weed control at 250 g/ha [1] [%]	plant injury at 15.625 g/ha (corn (Zea mays) [2]) [%]	plant injury at 62.5 g/ha (corn (Zea mays) [2]) [%]	plant injury at 250 g/ha (corn (Zea mays) [2]) [%]	pest or weed control at 15.625 g/ha [3] [%]	pest or weed control at 62.5 g/ha [3] [%]	pest or weed control at 250 g/ha [3] [%]	pest or weed control at 15.625 g/ha [4] [%]	pest or weed control at 62.5 g/ha [4] [%]	pest or weed control at 250 g/ha [4] [%]	pest or weed control at 15.625 g/ha [5] [%]	pest or weed control at 62.5 g/ha [5] [%]	pest or weed control at 250 g/ha [5] [%]	pest or weed control at 15.625 g/ha [6] [%]	pest or weed control at 62.5 g/ha [6] [%]	pest or weed control at 250 g/ha [6] [%]	pest or weed control at 15.625 g/ha [7] [%]	pest or weed control at 62.5 g/ha [7] [%]	other results
Cc1c(F)ccc(NC(=O)[C@@H]2C(=O)N(C)C[C@H]2c2ccc(C(F)(F)F)cc2)c1F (racemic) [Compound 1629]	10	0	70	0	10	0	30	50	80	10	40	50	0	0	0	0	0	0	0	30	pest or weed control at 250 g/ha [7]: 70%; plant injury at 15.625 g/ha (corn (Zea mays) [8]): 0%; plant injury at 62.5 g/ha (corn (Zea mays) [8]): 10%; plant injury at 250 g/ha (corn (Zea mays) [8]): 10%; pest or weed control at 15.625 g/ha [9]: 0%; pest or weed control at 62.5 g/ha [9]: 80%; pest or weed control at 250 g/ha [9]: 80%; pest or weed control at 15.625 g/ha [10]: 20%; pest or weed control at 62.5 g/ha [10]: 20%; pest or weed control at 250 g/ha [10]: 30%; pest or weed control at 15.625 g/ha [11]: 10%; pest or weed control at 62.5 g/ha [11]: 10%; pest or weed control at 250 g/ha [11]: 30%; pest or weed control at 15.625 g/ha [12]: 20%; pest or weed control at 62.5 g/ha [12]: 10%; pest or weed control at 250 g/ha [12]: 0%
CN1C[C@@H](c2cc(Cl)nc(Cl)c2)[C@H](C(=O)Nc2cccc(F)c2F)C1=O (racemic) [Compound 1494]	80	80	90	0	20	60	70	80	80	0	0	70	0	0	30	0	0	0	30	60	pest or weed control at 250 g/ha [7]: 50%; plant injury at 15.625 g/ha (corn (Zea mays) [8]): 10%; plant injury at 62.5 g/ha (corn (Zea mays) [8]): 30%; plant injury at 250 g/ha (corn (Zea mays) [8]): 80%; pest or weed control at 15.625 g/ha [9]: 60%; pest or weed control at 62.5 g/ha [9]: 60%; pest or weed control at 250 g/ha [9]: 60%; pest or weed control at 15.625 g/ha [10]: 10%; pest or weed control at 62.5 g/ha [10]: 40%; pest or weed control at 250 g/ha [10]: 50%; pest or weed control at 15.625 g/ha [11]: 0%; pest or weed control at 62.5 g/ha [11]: 0%; pest or weed control at 250 g/ha [11]: 0%; pest or weed control at 15.625 g/ha [12]: 0%; pest or weed control at 62.5 g/ha [12]: 0%; pest or weed control at 250 g/ha [12]: 30%
